17 compounds from ChEMBL document CHEMBL1154445, “Identification of "toxicophoric" features for predicting drug-induced QT interval prolongation” (Eur J Med Chem, 2008) can be followed below.

What is called pEC50 is the EC50 on a negative log10 scale, so that one unit is a factor of ten. As usually defined, the IC50 is the midpoint of a concentration-inhibition curve.

Data set [1] relates to Cavia porcellus. Description: Cardiotoxicity in iv dosed Dunkin-Hartley guinea pig assessed as drug level required to evoke 50 ms QTc prolongation administered as 3 fold cumulative doses measured every 10 seconds at end of every 20 mins follow up period of individual dose by ECG.
Data set [2] relates to Cavia porcellus. Briefly: Cardiotoxicity in Dunkin-Hartley guinea pig assessed as maximal QTc prolongation time at 10 mg/kg, iv administered as 3 fold cumulative doses measured every 10 seconds at end of every 20 mins follow up period of individual dose by ECG. On the set-up: dose 10 mg/kg, route intravenous. The note with it: in vivo. Type of data set: toxicity, organism-based.

Data set [3] has as its target Voltage-gated inwardly rectifying potassium channel KCNH2 (Homo sapiens, UniProt Q12809). Briefly: Inhibition of human ERG channel in HEK293 cells by voltage-clamp method. The note with it: for pIC50(uM): human.
The test system of data set [4] is Cavia porcellus. Description: Toxicity to Dunkin-Hartley guinea pig assessed as marked bradyarrhythmia and death at 10 mg/kg, iv. Format: organism-based. On the set-up: dose 10 mg/kg, route intravenous. The note with it: in vivo.
Data set [5] has as its system Cavia porcellus. Description: Cardiotoxicity in Dunkin-Hartley guinea pig assessed as maximal QTc prolongation time at 3 mg/kg, iv administered as 3 fold cumulative doses measured every 10 seconds at end of every 20 mins follow up period of individual dose by ECG. The note with it: in vivo. Also noted: dose 3 mg/kg, route intravenous. Format: toxicity, organism-based.

Chain of Voltage-gated inwardly rectifying potassium channel KCNH2 (Q12809 whole entry): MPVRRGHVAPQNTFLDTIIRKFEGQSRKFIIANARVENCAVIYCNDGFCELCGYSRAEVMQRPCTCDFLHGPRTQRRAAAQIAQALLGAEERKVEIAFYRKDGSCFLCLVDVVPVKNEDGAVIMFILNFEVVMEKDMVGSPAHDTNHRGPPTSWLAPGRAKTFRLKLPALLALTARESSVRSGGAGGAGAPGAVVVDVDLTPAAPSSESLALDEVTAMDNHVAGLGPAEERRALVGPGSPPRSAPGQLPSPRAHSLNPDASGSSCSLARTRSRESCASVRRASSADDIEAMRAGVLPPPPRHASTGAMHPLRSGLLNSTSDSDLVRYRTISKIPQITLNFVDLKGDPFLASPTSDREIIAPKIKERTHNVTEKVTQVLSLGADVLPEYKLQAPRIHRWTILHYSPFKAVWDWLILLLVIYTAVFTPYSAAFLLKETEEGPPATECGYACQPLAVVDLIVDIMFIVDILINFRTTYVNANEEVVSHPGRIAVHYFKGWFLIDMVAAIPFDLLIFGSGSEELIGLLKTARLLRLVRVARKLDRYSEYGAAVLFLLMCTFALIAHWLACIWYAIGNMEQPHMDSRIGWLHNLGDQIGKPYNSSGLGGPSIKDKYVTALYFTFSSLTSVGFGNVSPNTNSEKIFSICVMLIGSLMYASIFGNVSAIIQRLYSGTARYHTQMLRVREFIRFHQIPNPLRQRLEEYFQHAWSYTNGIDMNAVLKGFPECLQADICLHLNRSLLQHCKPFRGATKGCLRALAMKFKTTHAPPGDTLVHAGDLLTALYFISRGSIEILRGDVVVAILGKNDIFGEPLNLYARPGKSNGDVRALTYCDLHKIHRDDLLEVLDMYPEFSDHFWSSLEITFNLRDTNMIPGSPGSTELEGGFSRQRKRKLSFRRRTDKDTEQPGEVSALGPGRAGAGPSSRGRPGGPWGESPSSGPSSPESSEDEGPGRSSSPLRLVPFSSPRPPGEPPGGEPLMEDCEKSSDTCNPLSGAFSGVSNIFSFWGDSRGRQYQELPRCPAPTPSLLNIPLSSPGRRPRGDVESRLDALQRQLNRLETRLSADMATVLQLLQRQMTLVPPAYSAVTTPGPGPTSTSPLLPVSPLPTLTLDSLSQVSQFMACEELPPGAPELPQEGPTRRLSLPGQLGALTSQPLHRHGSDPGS

Regarding `CC(C)NCC(O)c1ccc(NS(C)(=O)=O)cc1` (stereo not given) [SOTALOL], in the data set on Cavia porcellus [1], the EC50 came to 6.2 µmol/kg and the pEC50 is listed as 2.77. Moreover, in the data set with Cavia porcellus [2], the Emax is given as 97.3 ms.

For `COc1cc(N)c(Cl)cc1C(=O)NC1CCN(CCCOc2ccc(F)cc2)CC1OC` (stereo not given) [CISAPRIDE], in the data set with Cavia porcellus [1], the EC50 came to 2.12 µmol/kg and the pEC50 turned out to be 3. The Emax in the data set on Cavia porcellus [2] amounted to 81.9 ms.

On to `CCCCNc1ccc(C(=O)OCCN(C)C)cc1` [TETRACAINE], for which, in the data set on Cavia porcellus [1], the EC50 worked out at 9.04 µmol/kg and the pEC50 amounted to 2.62. Moreover, in the data set on Cavia porcellus [2], the Emax is given as 91.5 ms.

For `C=C[C@H]1C[N@@]2CC[C@H]1C[C@@H]2[C@@H](O)c1ccnc2ccc(OC)cc12` [QUINIDINE], in the data set on Cavia porcellus [1], the EC50 came out at 8.34 µmol/kg and the pEC50 came to 2.55. For the same compound, the Emax in the data set with Cavia porcellus [2] is reported as 78.6 ms.

For the compound `CNCCC(Oc1ccccc1OC)c1ccccc1` (stereo not given) [NISOXETINE], the Emax with Cavia porcellus [2] turned out to be 37.5 ms.

On to `O=C(CCCN1CCC(O)(c2ccc(Cl)cc2)CC1)c1ccc(F)cc1` [HALOPERIDOL], for which, in the data set with Cavia porcellus [1], the EC50 was found to be 0.88 µmol/kg and the pEC50 was 3.48. Also, the Emax in the data set on Cavia porcellus [2] is reported as 123.3 ms.

As for `CCCN(CCC)C1CCc2cccc(O)c2C1` (stereo not given) [8-OH-DPAT], in the data set on Cavia porcellus [1], the EC50 turned out to be 4.57 µmol/kg and the pEC50 was 2.95. Further, the Emax with Cavia porcellus [2] was determined as 116.3 ms.

With `COC(=O)C1=CC[C@@H]2CC[C@H]1N2C` [METHYLECGONIDINE], in data set [3] (hek293), the “pIC50(uM)” value is reported as -2.23.

As for `CN1CC(=O)N2[C@H](c3ccc4c(c3)OCO4)c3[nH]c4ccccc4c3C[C@@H]2C1=O`, the IC50 in data set [3] was 100 µM.

Turning to `CCC1(c2ccccc2)C(=O)NC(=O)NC1=O` [PHENOBARBITAL], the “pIC50(uM)” value in data set [3] (HEK293 cells expressing human ERG channel) is recorded as -3.48.

As to `O=C(CCCN1CCC(O)(c2cccc(C(F)(F)F)c2)CC1)c1ccc(F)cc1` [TRIFLUPERIDOL], in the data set on Cavia porcellus [1], the EC50 is 7.65 µmol/kg and the pEC50 is reported as 2.51. The Emax in the data set on Cavia porcellus [2] is on record as 74.7 ms.

`Oc1ccc(CCN2CCC(Nc3nc4ccccc4n3Cc3ccc(F)cc3)CC2)cc1` [DESMETHEYLASTEMIZOLE] had a half-inhibitory concentration (IC50) in data set [3] of 0.001 µM.

Turning to `O=C(CCCN1CCC2(CC1)C(=O)NCN2c1ccccc1)c1ccc(F)cc1` [SPIPERONE], in the data set with Cavia porcellus [2], the Emax is 100 ms.

In the case of `Cc1nc2sccn2c(=O)c1CCN1CCC(=C(c2ccc(F)cc2)c2ccc(F)cc2)CC1` [RITANSERIN], in the data set on Cavia porcellus [1], the EC50 worked out at 0.19 µmol/kg and the pEC50 worked out at 4.05. Moreover, the Activity entry in the data set with Cavia porcellus [4] is listed as “Toxic”. Further, in the data set on Cavia porcellus [5], the Emax stood at 106.8 ms.

`CN1CCC[C@H]1c1cccnc1` [NICOTINE]: the “pIC50(uM)” value in data set [3] (hek293) was -2.39.

`CN1CCN(C2=Nc3ccccc3Nc3sc(CO)cc32)CC1` had an IC50 in data set [3] of 11.5 µM.

In the case of `COc1ccc(CCN2CCC(Nc3nc4ccccc4n3Cc3ccc(F)cc3)CC2)cc1` [ASTEMIZOLE], in the data set on Cavia porcellus [1], the EC50 stood at 0.39 µmol/kg and the pEC50 is listed as 3.74.
